Measured values published in ChEMBL document CHEMBL5107996, “Design and evaluation of achiral, non-atropisomeric 4-(aminomethyl)phthalazin-1(2H)-one derivatives as novel PRMT5/MTA inhibitors” (Bioorg Med Chem, 2022).
pIC50: −log10 of the molar value.

Experiments:
[1] = Ratio IC50 for antiproliferative activity against human HCT-116 cells expressing wild type MTAP to IC50 for antiproliferative activity against MTAP knockout human HCT-116 cells
HCT-116 [2] = experiment: Antiproliferative activity against human HCT-116 cells expressing wild type MTAP assessed as cell viability after 10 days by CellTiter-Glo assay; format: functional, cell-based; conditions: HCT-116, 240 h
[3] = Metabolic stability in human hepatocytes assessed as intrinsic clearance; format: ADME, cell-based, Hepatocyte; conditions: read-out: CLH
HCT-116 [4] = experiment: Antiproliferative activity against MTAP knockout human HCT-116 cells assessed as cell viability after 10 days by CellTiter-Glo assay; format: functional, cell-based; conditions: HCT-116, 240 h
[5] = biological target: T1, Protein arginine N-methyltransferase 5 (Homo sapiens, UniProt O14744); experiment: Inhibition of PRMT5 methyltransferase activity in MTAP knockout human HCT-116 cells assessed as inhibition of PRMT5-mediated SDMA modification level incubated for 96 hrs by In-cell Western analysis; format: cell-based
T1 sequence (O14744 whole entry): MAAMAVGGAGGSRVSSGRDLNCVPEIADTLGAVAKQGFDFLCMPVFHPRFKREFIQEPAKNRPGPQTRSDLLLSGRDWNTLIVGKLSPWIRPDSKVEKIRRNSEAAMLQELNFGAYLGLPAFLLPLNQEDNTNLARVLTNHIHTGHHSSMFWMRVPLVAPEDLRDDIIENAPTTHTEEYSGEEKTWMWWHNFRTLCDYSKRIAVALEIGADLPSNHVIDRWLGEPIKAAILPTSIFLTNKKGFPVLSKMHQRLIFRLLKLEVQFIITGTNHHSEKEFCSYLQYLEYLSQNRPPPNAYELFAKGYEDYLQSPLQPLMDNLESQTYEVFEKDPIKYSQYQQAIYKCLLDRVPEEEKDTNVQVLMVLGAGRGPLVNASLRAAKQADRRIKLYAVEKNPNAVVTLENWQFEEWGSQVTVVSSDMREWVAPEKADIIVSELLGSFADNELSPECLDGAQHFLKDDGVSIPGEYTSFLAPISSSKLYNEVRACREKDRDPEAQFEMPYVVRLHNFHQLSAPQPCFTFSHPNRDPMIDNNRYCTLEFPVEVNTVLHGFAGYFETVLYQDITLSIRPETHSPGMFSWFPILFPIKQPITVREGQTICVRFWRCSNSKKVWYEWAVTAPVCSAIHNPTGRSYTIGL

[6] = biological target: T1, Protein arginine N-methyltransferase 5; experiment: Inhibition of PRMT5 methyltransferase activity in human HCT-116 cells expressing wild type MTAP assessed as inhibition of PRMT5-mediated SDMA modification level incubated for 96 hrs by In-cell Western analysis; format: cell-based
HepG2 = experiment: Antiproliferative activity against human HepG2 cells assessed as inhibition of cell viability measured after 120 hrs CellTiter-Glo assay; format: functional, cell-based; conditions: HepG2, 120 h
[7] = biological target: T1, Protein arginine N-methyltransferase 5; experiment: Inhibition of PRMT5 (unknown origin) using H2A and 3H-SAM as substrates preincubated for 20 mins followed by substrate addition incubated for 60 mins in presence of MTA by radiometric HotSpot assay

| Compound | Ratio IC50 [1] | pIC50 (HCT-116 [2]) | CLint scaled [3] [mL/min/kg] | pIC50 (HCT-116 [4]) | pIC50 [5] | pIC50 [6] | pIC50 (HepG2) | pIC50 [7] |
| --- | --- | --- | --- | --- | --- | --- | --- | --- |
| Cn1ncc(-c2cc([C@@H]3CCCO3)c3c(=O)[nH]nc(CN)c3c2)c1-c1sc2ccccc2c1C#N | 3 | 5.69 | 43 | 6.15 | 6.41 | < 6.00 | – | – |
| Cn1ncc(-c2ccc3c(=O)[nH]nc(CN)c3c2)c1-c1c(F)c(Cl)cc(OC2CC2)c1C#N | – | – | < 18 | – | – | – | 5.18 | – |
| Cn1ncc(-c2cc(Cl)c3c(=O)[nH]nc(CN)c3c2)c1-c1sc2ccccc2c1C#N | 14 | 6.13 | 71 | 7.28 | 7.77 | < 6.00 | – | – |
| CCOc1cc(-c2cnn(C)c2-c2sc3ccccc3c2C#N)cc2c(CN)n[nH]c(=O)c12 | 4 | 6.20 | < 18 | 6.82 | 6.95 | 6.21 | – | – |
| COCc1cc(-c2cnn(C)c2-c2sc3ccccc3c2C#N)cc2c(CN)n[nH]c(=O)c12 | 3 | 7.29 | 66 | 7.72 | 8.30 | 6.57 | 6.31 | – |
| Cn1ncc(-c2ccc3c(=O)[nH]nc(CN)c3c2)c1-c1sc2ncccc2c1C#N | – | – | – | 6.50 | – | – | – | 7.00 |
| Cn1ncc(-c2ccc3c(=O)[nH]nc(CN)c3c2)c1-c1sc2cccnc2c1C#N | – | – | – | 5.81 | – | – | – | 6.19 |
| Cn1ncc(-c2cc([C@H]3CCCO3)c3c(=O)[nH]nc(CN)c3c2)c1-c1sc2ccccc2c1C#N | 2 | 7.54 | 39 | 7.80 | 8.40 | 6.76 | 6.54 | – |
| Cn1ncc(-c2ccc3c(=O)[nH]nc(CN)c3n2)c1-c1sc2ccccc2c1C#N | – | – | – | 6.60 | – | – | – | – |
| Cn1ncc(-c2cnc3c(=O)[nH]nc(CN)c3c2)c1-c1sc2ccccc2c1C#N | – | – | – | 5.45 | – | – | – | 5.87 |
| Cn1ncc(-c2ccc3c(=O)[nH]nc(CN)c3c2)c1-c1sc2ccncc2c1C#N | – | – | – | 5.53 | – | – | – | 6.11 |
| Cn1ncc(-c2ccc3c(=O)[nH]nc(CN)c3c2)c1-c1sc2cnccc2c1C#N | – | – | – | 5.83 | – | – | – | 6.65 |
| Cc1cc(-c2cnn(C)c2-c2sc3ccccc3c2C#N)cc2c(CN)n[nH]c(=O)c12 | 49 | 5.83 | 27 | 7.52 | 7.77 | < 6.00 | – | – |
| Cn1ncc(-c2cc(O)c3c(=O)[nH]nc(CN)c3c2)c1-c1sc2ccccc2c1C#N | 23 | 5.36 | < 18 | 6.73 | 6.58 | < 6.00 | – | – |
| Cn1ncc(-c2cc(C(F)F)c3c(=O)[nH]nc(CN)c3c2)c1-c1sc2ccccc2c1C#N | 55 | 5.69 | 44 | 7.43 | 7.60 | 6.12 | – | – |
| Cn1ncc(-c2ccc3c(=O)[nH]nc(CN)c3c2)c1-c1sc2ccccc2c1C#N | 100 | – | – | – | – | < 6.00 | 4.74 | 7.43 |
